How the values were obtained:
Type in all cases: in vivo
[1] = test system: Italian ryegrass (Lolium multiflorum); assay: Test A preemergence, visual plant response rating; conditions: approx. 10 days
Summary of the method: (§1)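 Ratings use a 0–100 visual scale (100 = complete control) against untreated controls, scored about 10 days after greenhouse treatment. Test chemicals were formulated in surfactant-containing non-phytotoxic solvent and applied either as soil spray after planting (preemergence) or onto one- to two-leaf, 2–10 cm plants (postemergence).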

[2] = test system: barnyardgrass (Echinochloa crus-galli); assay: Test A preemergence, visual plant response rating; conditions: approx. 10 days
Summary of the method: as §1

[3] = test system: foxtail, green (green foxtail, Setaria viridis); assay: Test A preemergence, visual plant response rating; conditions: approx. 10 days
Summary of the method: as §1

[4] = test system: kochia (Kochia scoparia); assay: Test A preemergence, visual plant response rating; conditions: approx. 10 days
Summary of the method: as §1

[5] = test system: pigweed (Amaranthus retroflexus); assay: Test A preemergence, visual plant response rating; conditions: approx. 10 days
Summary of the method: as §1

[6] = test system: ragweed (common ragweed, Ambrosia elatior); assay: Test A preemergence, visual plant response rating; conditions: approx. 10 days
Summary of the method: as §1

[7] = test system: Italian ryegrass (Lolium multiflorum); assay: Test A postemergence, visual plant response rating; conditions: for Ryegrass, Italian plant response rating (0 to 100 scale): 500 g ai/ha, postemergence, 0 is no effect, 100 is complete control; for Ryegrass, Italian plant response rating: Postemergence, 125 g ai/ha, 0 to 100 scale (0 no effect, 100 complete control)
Summary of the method: as §1

[8] = test system: barnyardgrass (Echinochloa crus-galli); assay: Test A postemergence, visual plant response rating; conditions: for Barnyardgrass plant response rating (0 to 100 scale): 500 g ai/ha, postemergence, 0 is no effect, 100 is complete control; for Barnyardgrass plant response rating: Postemergence, 125 g ai/ha, 0 to 100 scale (0 no effect, 100 complete control)
Summary of the method: as §1

[9] = test system: blackgrass (Alopecurus myosuroides); assay: Test A postemergence, visual plant response rating; conditions: for Blackgrass plant response rating (0 to 100 scale): 500 g ai/ha, postemergence, 0 is no effect, 100 is complete control; for Blackgrass plant response rating: Postemergence, 125 g ai/ha, 0 to 100 scale (0 no effect, 100 complete control)
Summary of the method: as §1

[10] = test system: corn (Zea mays); assay: Test A postemergence, visual plant response rating; conditions: for Corn plant response rating (0 to 100 scale): 500 g ai/ha, postemergence, 0 is no effect, 100 is complete control; for Corn plant response rating: Postemergence, 125 g ai/ha, 0 to 100 scale (0 no effect, 100 complete control)
Summary of the method: as §1

[11] = test system: foxtail, green (green foxtail, Setaria viridis); assay: Test A postemergence, visual plant response rating; conditions: for Foxtail, Green plant response rating (0 to 100 scale): 500 g ai/ha, postemergence, 0 is no effect, 100 is complete control; for Foxtail, Green plant response rating: Postemergence, 125 g ai/ha, 0 to 100 scale (0 no effect, 100 complete control)
Summary of the method: as §1

[12] = test system: galium (catchweed bedstraw, Galium aparine); assay: Test A postemergence, visual plant response rating; conditions: for Galium plant response rating (0 to 100 scale): 500 g ai/ha, postemergence, 0 is no effect, 100 is complete control; for Galium plant response rating: Postemergence, 125 g ai/ha, 0 to 100 scale (0 no effect, 100 complete control)
Summary of the method: as §1

[13] = test system: kochia (Kochia scoparia); assay: Test A postemergence, visual plant response rating; conditions: for Kochia plant response rating (0 to 100 scale): 500 g ai/ha, postemergence, 0 is no effect, 100 is complete control; for Kochia plant response rating: Postemergence, 125 g ai/ha, 0 to 100 scale (0 no effect, 100 complete control)
Summary of the method: as §1

[14] = test system: pigweed (Amaranthus retroflexus); assay: Test A postemergence, visual plant response rating; conditions: for Pigweed plant response rating (0 to 100 scale): 500 g ai/ha, postemergence, 0 is no effect, 100 is complete control; for Pigweed plant response rating: Postemergence, 125 g ai/ha, 0 to 100 scale (0 no effect, 100 complete control)
Summary of the method: as §1

[15] = test system: ragweed (common ragweed, Ambrosia elatior); assay: Test A postemergence, visual plant response rating; conditions: for Ragweed plant response rating (0 to 100 scale): 500 g ai/ha, postemergence, 0 is no effect, 100 is complete control; for Ragweed plant response rating: Postemergence, 125 g ai/ha, 0 to 100 scale (0 no effect, 100 complete control)
Summary of the method: as §1

[16] = test system: wheat (Triticum aestivum); assay: Test A postemergence, visual plant response rating; conditions: for Wheat plant response rating (0 to 100 scale): 500 g ai/ha, postemergence, 0 is no effect, 100 is complete control; for Wheat plant response rating: Postemergence, 125 g ai/ha, 0 to 100 scale (0 no effect, 100 complete control)
Summary of the method: as §1

[17] = test system: barnyardgrass (Echinochloa crus-galli); assay: Test B flooded paddy test, visual plant response rating; conditions: 250 g ai/ha, Flood, applied to paddy water, 2-leaf stage, evaluated after 13 to 15 days
Summary of the method: (§2)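 Flooded-pot treatment: water 3 cm over the soil, chemical delivered into that water, depth unchanged for the duration. Assessed by eye versus controls following 13–15 greenhouse days; plants were at 2 leaves when dosed.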

[18] = test system: ducksalad (Heteranhera limosa); assay: as above; conditions: 250 g ai/ha, Flood, applied to paddy water, 2-leaf stage, evaluated after 13 to 15 days
Summary of the method: as §2

[19] = test system: rice (Oryza sativa); assay: as above; conditions: 250 g ai/ha, Flood, applied to paddy water, 2-leaf stage, evaluated after 13 to 15 days
Summary of the method: as §2

[20] = test system: sedge, umbrella (small-flower umbrella sedge, Cyperus difformis); assay: as above; conditions: 250 g ai/ha, Flood, applied to paddy water, 2-leaf stage, evaluated after 13 to 15 days
Summary of the method: as §2

SMILES | Ryegrass, Italian plant response rating (0 to 100 scale) ([1]; 125 g ai/ha Preemergence) | Ryegrass, Italian plant response rating (0 to 100 scale) ([1]; 500 g ai/ha Preemergence) | Barnyardgrass plant response rating (0 to 100 scale) ([2]; 125 g ai/ha Preemergence) | Barnyardgrass plant response rating (0 to 100 scale) ([2]; 500 g ai/ha Preemergence) | Foxtail, Green plant response rating (0 to 100 scale) ([3]; 125 g ai/ha Preemergence) | Foxtail, Green plant response rating (0 to 100 scale) ([3]; 500 g ai/ha Preemergence) | Kochia plant response rating (0 to 100 scale) ([4]; 125 g ai/ha Preemergence) | Kochia plant response rating (0 to 100 scale) ([4]; 500 g ai/ha Preemergence) | Pigweed plant response rating (0 to 100 scale) ([5]; 125 g ai/ha Preemergence) | Pigweed plant response rating (0 to 100 scale) ([5]; 500 g ai/ha Preemergence) | Ragweed plant response rating (0 to 100 scale) ([6]; 125 g ai/ha Preemergence) | Ragweed plant response rating (0 to 100 scale) ([6]; 500 g ai/ha Preemergence) | Ryegrass, Italian plant response rating (0 to 100 scale) [7] | Ryegrass, Italian plant response rating [7] | Barnyardgrass plant response rating (0 to 100 scale) [8] | Barnyardgrass plant response rating [8] | Blackgrass plant response rating (0 to 100 scale) [9] | Blackgrass plant response rating [9] | Corn plant response rating (0 to 100 scale) [10] | Corn plant response rating [10] | other results
CCO/N=C(/c1cccc(Cl)c1)c1c(O)c(C)nn(C)c1=O [Compound 9] | 20 | 40 | 0 | 50 | 20 | 40 | 10 | 60 | 40 | 90 | 80 | 90 | 60 | 40 | 20 | 0 | 20 | 0 | 10 | 0 | Foxtail, Green plant response rating (0 to 100 scale) [11]: 30; Foxtail, Green plant response rating [11]: 10; Galium plant response rating (0 to 100 scale) [12]: 90; Galium plant response rating [12]: 80; Kochia plant response rating (0 to 100 scale) [13]: 60; Kochia plant response rating [13]: 10; Pigweed plant response rating (0 to 100 scale) [14]: 20; Pigweed plant response rating [14]: 0; Ragweed plant response rating (0 to 100 scale) [15]: 80; Ragweed plant response rating [15]: 30; Wheat plant response rating (0 to 100 scale) [16]: 0; Wheat plant response rating [16]: 0; Plant response rating, Barnyardgrass (0 to 100 scale, 0 is no effect, 100 is complete control) [17]: 0; Plant response rating, Ducksalad (0 to 100 scale, 0 is no effect, 100 is complete control) [18]: 0; Plant response rating, Rice (0 to 100 scale, 0 is no effect, 100 is complete control) [19]: 0; Plant response rating, Sedge, Umbrella (0 to 100 scale, 0 is no effect, 100 is complete control) [20]: 0
CO/N=C(\c1cccc(C)c1)c1c(O)c(C)nn(C)c1=O [Compound 13] | 50 | 100 | 0 | 80 | 0 | 20 | 30 | 30 | 90 | 80 | 30 | 100 | 90 | 80 | 50 | 10 | 50 | 10 | 10 | 0 | Foxtail, Green plant response rating (0 to 100 scale) [11]: 60; Foxtail, Green plant response rating [11]: 10; Galium plant response rating (0 to 100 scale) [12]: 100; Galium plant response rating [12]: 90; Kochia plant response rating (0 to 100 scale) [13]: 60; Kochia plant response rating [13]: 20; Pigweed plant response rating (0 to 100 scale) [14]: 90; Pigweed plant response rating [14]: 40; Ragweed plant response rating (0 to 100 scale) [15]: 70; Ragweed plant response rating [15]: 70; Wheat plant response rating (0 to 100 scale) [16]: 0; Wheat plant response rating [16]: 0; Plant response rating, Barnyardgrass (0 to 100 scale, 0 is no effect, 100 is complete control) [17]: 0; Plant response rating, Ducksalad (0 to 100 scale, 0 is no effect, 100 is complete control) [18]: 0; Plant response rating, Rice (0 to 100 scale, 0 is no effect, 100 is complete control) [19]: 0; Plant response rating, Sedge, Umbrella (0 to 100 scale, 0 is no effect, 100 is complete control) [20]: 0

Source: US20210045385A1, “PYRIDAZINONE-SUBSTITUTED KETOXIMES AS HERBICIDES” (FMC Corporation, priority 2018, published 2021)
